Earlier results, collected in paper PMC6606825 (Journal of Ginseng Research, 2018).

How the values were obtained:
[1] = PK data in animals and healthy individuals; cited from earlier work
[2] = tested on: cytochrome P450 enzymes (CYPs); settings: in vitro; ref unpublished; cited from earlier work

SMILES: CC(C)=CCC[C@](C)(O[C@@H]1O[C@H](CO)[C@@H](O)[C@H](O)[C@H]1O)[C@H]1CC[C@]2(C)[C@@H]1[C@H](O)C[C@@H]1[C@@]3(C)CC[C@H](O)C(C)(C)[C@@H]3CC[C@]12C [Ginsenoside compound K, 20-O-beta-D-glucopyranosyl-20(S)-protopanaxadiol]
- oral bioavailability [1]: poor oral bioavailability
- effects of CYPs on CK [2]: minimal effects
